What was measured:
Assay in all cases: relative viability (nuclei count vs DMSO), 5 days (fraction); higher = more cells survive
[1] = compound: CC(C)=CC[C@@H](O)C1=CC(=O)c2c(O)ccc(O)c2C1=O [Shikonin] + COc1cccc2cc(-c3nc([C@H]4CC[C@H](C(=O)O)CC4)n4ncnc(N)c34)[nH]c12 [OSI-027] (partner 0.5 µM)
Procedure, shortened: (§1)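 Medians of duplicate plates are given as relative viability. That measure is the nuclei count in treated wells divided by the count in vehicle wells. Counts were taken on 4× images of lung cancer cell lines in 1536-well plates, 5 days after pin-tool dosing the day after seeding with one drug alone or a fixed anchor-drug dose plus five library-drug doses (not always all listed) in √10 steps.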

[2] = compound: CC(C)=CC[C@@H](O)C1=CC(=O)c2c(O)ccc(O)c2C1=O [Shikonin] + Cc1cc(Nc2cc(N3CCN(C)CC3)nc(Sc3ccc(NC(=O)C4CC4)cc3)n2)n[nH]1 [Tozasertib] (partner 0.1 µM)
Procedure, shortened: as §1

[3] = compound: CC(C)=CC[C@@H](O)C1=CC(=O)c2c(O)ccc(O)c2C1=O [Shikonin] + NC(=O)Nc1cc(-c2cccc(F)c2)sc1C(=O)N[C@H]1CCCNC1 [AZD7762] (partner 0.2 µM)
Procedure, shortened: as §1

[4] = compound: CC(C)N(CCCNC(=O)Nc1ccc(C(C)(C)C)cc1)C[C@H]1O[C@@H](n2ccc3c(N)ncnc32)[C@H](O)[C@@H]1O + Cc1nc(NC(=O)N2CCC[C@H]2C(N)=O)sc1-c1ccnc(C(C)(C)C(F)(F)F)c1 [Alpelisib] (partner 2 µM)
Procedure, shortened: as §1

Cell Line	relative viability ([1]; first compound 0.01 µM)	relative viability ([1]; first compound 0.1 µM)	relative viability ([1]; first compound 0.3162 µM)	relative viability ([1]; first compound 1 µM)	relative viability ([2]; first compound 0.01 µM)	relative viability ([2]; first compound 0.1 µM)	relative viability ([2]; first compound 0.3162 µM)	relative viability ([2]; first compound 1 µM)	relative viability ([3]; first compound 0.01 µM)	relative viability ([3]; first compound 0.1 µM)	relative viability ([3]; first compound 0.3162 µM)	relative viability ([3]; first compound 1 µM)	relative viability ([4]; first compound 0.08 µM)	relative viability ([4]; first compound 0.253 µM)	relative viability ([4]; first compound 0.8 µM)	relative viability ([4]; first compound 2.53 µM)	relative viability ([4]; first compound 8 µM)
BEN	0.281	0.311	0.298	0.324	0.508	0.507	0.51	0.52	0.744	0.807	0.718	0.694	0.909	0.93	0.953	0.913	0.989
LCLC-103H	0.541	0.54	0.514	0.534	0.452	0.498	0.52	0.516	0.796	0.889	0.815	0.954	1.03	0.905	0.907	0.99	0.898
EKVX	0.617	0.668	0.917	0.734	0.387	0.327	0.402	0.414	0.744	0.698	0.851	0.703	0.908	0.883	0.827	0.855	0.676
LXF-289	0.817	0.84	0.825	0.892	0.212	0.183	0.209	0.196	1.13	1.15	1.14	1.18	1.01	1.05	1.07	1.09	1.04
ABC-1	0.61	0.533	0.391	0.265	0.141	0.196	0.188	0.187		1.13	0.644	0.741	0.989	1.2		1.12	1.07
NCI-H727	0.683	0.668	0.57	0.525	1.64	0.672	0.634	0.697	0.682	0.584	0.732	0.647	0.448	0.511	0.612	0.547	0.673
NCI-H2087	0.602	0.616	0.66	0.502	0.307	0.254	0.198	0.202	1.38	1.12	1.35	1.23	1.04	1.21	1.14	1.24	1.11
NCI-H1793	0.223	0.271	0.291	0.301	0.353	0.322	0.332	0.498	0.555	0.531	0.494	0.629	0.554		0.715	0.527	0.669
LC-2-ad	0.815	0.913	0.816	0.876	0.486	0.392	0.485	0.435	0.756	0.919	0.863	0.949	0.802	0.83	0.992	0.823	0.806
NCI-H1355	0.457	0.405	0.37	0.483	0.559	0.553	0.554	0.583	0.739	0.898	0.825	0.787	0.768	0.809		0.772	0.804

— the supplement of paper PMC10307832
